Entries after “also recorded” stand apart in the source; their conditions may differ. Where no end group is shown, it is not given here.
What was measured:
[1] = test system: Cardiac myocytes from embryonic chick hearts; experiment: Amelioration of ammonium persulfate-induced cell death in cultured cardiac myocytes (Trypan blue exclusion); assay type: cell-based; conditions: 1 mM ammonium persulfate
Procedure: Cardiac myocytes from embryonic chick hearts were grown in culture using the procedures described in Rabkin, Exper. Cell. Res. 188:262-266, 1990. Briefly, white Leghorn eggs were incubated in an automatic incubator (March Rollex, Calif., USA) for 7 days at 37.8° C. and 87% humidity. Hearts were then isolated under sterile conditions from the 7-day chick embryo. Blood and connective tissue were removed under a dissecting microscope in a solution of balanced salts (DMS8) with the following composition (mM): NaCl 116, KCl 5.4, NaH2PO4 1 and dextrose 5.6. Disaggregation was carried out by 5-minute digestions in 0.005% trypsin (Gibco Laboratories, Burlington, Ontario), 0.1% BSA and 1×10^7 DNAse per mL, DMS8 (Worthington Biochemicals, Frederic, N.J., USA) at 37° C. After three digestions, the digests were diluted 1:5 in culture medium and the cells centrifuged for three minutes at 1000 g and plated.
The cultured cardiac myocytes were incubated with 1 mM ammonium persulfate for 2 hours at 37° C. to induce oxidative damage. Cell viability was assessed by Trypan blue exclusion. Six samples containing cells were then incubated with 0.0, 0.000375, 0.00375, 0.0375, 0.375 and 37.5 μM streptokinase (Hoechts-Roussel Pharmaceuticals), respectively, and 0.0, 0.000246, 0.00246, 0.0246, 0.246 and 24.6 μM plasminogen, respectively (see Table 1), for 1-2 hours at 37° C. and assessed by Trypan blue exclusion.
Control cell samples were treated with 1 mM ammonium persulfate in the absence of streptokinase (STK) and plasminogen under the same conditions.
The results are described in Table 1 in terms of the percent cell death induced by ammonium persulfate. The data represents the mean of six (6) duplicate determinations, none of which differed by more than 5%.
Each of the nineteen (19) resulting fractions was tested for the peptide's ability to ameliorate cell death according to the assay described in Example 1. The data in Table 2 represent the mean of duplicate determinations. None of the determinations differed by more than 5%.
Based on the sequences identified in Example 2, peptides were synthesized using a commercially available automated synthesizer (Applied Biosystems 430 A Peptide Synthesizer), purified by and tested according to the assay described in Example 1 for their ability to ameliorate cell death in cardiac myocytes. The sequences for these peptides were:
Table 3 presents the percentage of dead cells as measured by Trypan blue assessment as described in Example 1.

[2] = test system: Spinal cord cells isolated from embryonic chicks; experiment: Amelioration of ammonium persulfate-induced cell death in spinal cord cells (trypan blue); assay type: cell-based, chick; conditions: 1 mM ammonium persulfate for 1 or 2 hours; 10 μg/ml or 20 μg/ml peptide; versus control
Procedure: Spinal cord cells isolated from embryonic chicks were grown in culture for 5-7 days. Chick spinal cord cells were cultured as described briefly as follows. Cell cultures were prepared from 7-day chick embryo. Ventral portions of spinal cord were dissected free of meninges and dorsal root ganglia and diced into small pieces in Dulbecco's phosphate-buffered saline (PBS). Tissue fragments were incubated in PBS with 0.25% trypsin and 20 μg/ml DNase for 30 min at 36° C. Trypsin was inactivated by the addition of horse serum and cells were dissociated by gentle pipetting.
Isolated cells were washed, resuspended in medium and plated onto plastic coverslips in petri dishes. The medium consisted of Eagle's minimum essential medium (MEM), 10% fetal bovine serum (FBS), 5 mg/ml D-glucose and 25 μg/ml gentamycin. Cells were grown in an incubator with 5% CO2/95% air at 37° C. and the medium was renewed twice a week. Cells were used for experiment after 14 days.
Both the experimental and control cultures were treated with 1 mM ammonium persulfate for 1 or 2 hours at 37° C. The experimental cultures were treated with either 10 μg/ml or 20 μg/ml of the 20 mer peptide (SEQ ID NO: 6) for the same length of time. The number of dead cells, assayed by trypan blue, in the experimental groups was compared to that in the control group.

M07E = experiment: Serum-deprivation-induced cell death, 3H-thymidine incorporation, M07E; assay type: cell-based, human; conditions: M07E starved 30 hours, 20 μg/ml, then washed, IL-3 for 22 hours; control 2,003 ± 468
Procedure: (§1) Cells in the latter group were washed free of the 20 mer (SEQ. ID NO. 6), given saturating concentrations of growth factor (5 ng/ml of human interleukin-3) and incubated for an additional 22 hours. After the 22 hours, 1 μCi of ^3H-thymidine (2 Ci/mmol) was added and, after 2 hours, the cellular contents were harvested onto filtermats. Then ^3H-thymidine incorporation was measured using an LKB Betaplate Harvester and liquid scintillation counter. Note the increased viability of cells treated with the 20 mer peptide (SEQ ID NO: 6).

TF-1 = experiment: Serum-deprivation-induced cell death, 3H-thymidine incorporation, TF-1; assay type: cell-based, human; conditions: TF-1 starved 30 hours, 20 μg/ml, then washed, IL-3 for 22 hours; control 14,728 ± 2,825
Procedure: as §1

[3] = reverse phase HPLC fractions of streptokinase incubated 1:1 with plasminogen

| Substance | percentage of dead cells ([1]; Peptide Concentration 5 μM) | percentage of dead cells ([1]; Peptide Concentration 20 μM) | further results |
| --- | --- | --- | --- |
| YVDVDT [6 mer #2] | 37.0% | 25.4% | – |
| NFLRGKLKLYTGEACRTGDR [Irrelevant #1, irrelevant peptide utilized as negative control, reference compound] | 77.1% | 67.6% | – |
| Streptokinase [reference compound] | – | – | Cell Death (%) ([1]; 0.000375 μM streptokinase with 0.000246 μM plasminogen, control 81): 50%; Cell Death (%) ([1]; 0.00375 μM streptokinase with 0.00246 μM plasminogen, control 81): 37%; Cell Death (%) ([1]; 0.0375 μM streptokinase with 0.0246 μM plasminogen, control 81): 29%; Cell Death (%) ([1]; 0.375 μM streptokinase with 0.246 μM plasminogen, control 81): 25%; Cell Death (%) ([1]; 37.5 μM streptokinase with 24.6 μM plasminogen, control 81): 16% |
| YVDVDTNELLKSEQLLTASE [fraction 12] | – | – | Cell Death (%) [1, 3]: 29% |
| YVDVDTNELLK [11 mer] | 38.6% | – | – |
| SVDVEYTQFTDFRGKLTKLL [20 mer] | 47.6% | 23.1% | percentage of dead cells ([1]; Peptide Concentration 10 μM): 35.4%; percentage of dead cells ([1]; Peptide Concentration 15 μM): 31.6%; percentage of dead cells ([1]; Peptide Concentration 20 μM, listed as 20mer): ~20%; survival of spinal cord cells (number of dead cells, trypan blue) [2]: dramatically enhanced cell survival; also recorded: almost completely prevented cell death; 3H-THYMIDINE COUNTS (COUNTS PER MINUTE) (M07E): 4,282 ± 212 COUNTS PER MINUTE; 3H-THYMIDINE COUNTS (COUNTS PER MINUTE) (TF-1): 32,701 ± 5,565 COUNTS PER MINUTE |
| SVDVEY [6 mer #1] | 51.9% | 36.8% | – |
| SVDVEYTVQFTPLNPDDD [18 mer] | – | 54.4% | – |
| SVDVEYTVQFTPLNPDDDFRP [fraction 13] | – | – | Cell Death (%) [1, 3]: 39% |
| EVTEEEETVPLKThE-AMIDE [Irrelevant #3, reference compound] | 79.5% | 81.1% | – |
| RLILDSRVLERYLLEAKEAE [Irrelevant #2, irrelevant peptide utilized as negative control, reference compound] | 77.4% | 76.1% | – |

Source: US6841532B2, “Peptides and their use to ameliorate cell death” (priority 1995, dated 2005)
